From a compilation of properties of binary mixtures (doi:10.1016/j.molliq.2020.113538)

Experiment: xn = mol fraction of the nth substance listed
Conditions: 101 kPa

## CC[n+]1ccn(CCOC)c1.O=S(=O)([O-])C(F)(F)F + CCO
288.15 K, x1 = 0.0996
  viscosity: 2.654 mPa·s
288.15 K, x1 = 0.1999
  viscosity: 4.54 mPa·s
288.15 K, x1 = 0.3984
  viscosity: 12.13 mPa·s
288.15 K, x1 = 0.4991
  viscosity: 19.22 mPa·s
288.15 K, x1 = 0.603
  viscosity: 28.7 mPa·s
288.15 K, x1 = 0.699
  viscosity: 43.6 mPa·s
288.15 K, x1 = 0.797
  viscosity: 62.8 mPa·s
288.15 K, x1 = 0.899
  viscosity: 84.4 mPa·s
288.15 K, x1 = 1
  viscosity: 121 mPa·s
293.15 K, x1 = 0.0996
  viscosity: 2.374 mPa·s
293.15 K, x1 = 0.1999
  viscosity: 4.01 mPa·s
293.15 K, x1 = 0.2996
  viscosity: 6.66 mPa·s
293.15 K, x1 = 0.3984
  viscosity: 10.37 mPa·s
293.15 K, x1 = 0.4991
  viscosity: 16.43 mPa·s
293.15 K, x1 = 0.603
  viscosity: 23.77 mPa·s
293.15 K, x1 = 1
  viscosity: 92.5 mPa·s
298.15 K, x1 = 0.0996
  viscosity: 2.139 mPa·s
298.15 K, x1 = 0.2996
  viscosity: 5.84 mPa·s
298.15 K, x1 = 0.3984
  viscosity: 8.96 mPa·s
298.15 K, x1 = 0.4991
  viscosity: 13.98 mPa·s
298.15 K, x1 = 0.603
  viscosity: 19.98 mPa·s
298.15 K, x1 = 0.699
  viscosity: 29.12 mPa·s
298.15 K, x1 = 0.899
  viscosity: 52.2 mPa·s
298.15 K, x1 = 1
  viscosity: 72.5 mPa·s
303.15 K, x1 = 0.2996
  viscosity: 5.16 mPa·s
303.15 K, x1 = 0.3984
  viscosity: 7.82 mPa·s
303.15 K, x1 = 0.4991
  viscosity: 11.97 mPa·s
303.15 K, x1 = 0.603
  viscosity: 17.28 mPa·s
303.15 K, x1 = 0.699
  viscosity: 24.38 mPa·s
303.15 K, x1 = 0.797
  viscosity: 32.04 mPa·s
303.15 K, x1 = 0.899
  viscosity: 42.9 mPa·s
308.15 K, x1 = 0.0996
  viscosity: 1.757 mPa·s
308.15 K, x1 = 0.1999
  viscosity: 2.916 mPa·s
308.15 K, x1 = 0.2996
  viscosity: 4.59 mPa·s
308.15 K, x1 = 0.3984
  viscosity: 6.88 mPa·s
308.15 K, x1 = 0.4991
  viscosity: 10.34 mPa·s
308.15 K, x1 = 0.699
  viscosity: 20.67 mPa·s
308.15 K, x1 = 1
  viscosity: 47.3 mPa·s
313.15 K, x1 = 0.0996
  viscosity: 1.603 mPa·s
313.15 K, x1 = 0.1999
  viscosity: 2.644 mPa·s
313.15 K, x1 = 0.2996
  viscosity: 4.11 mPa·s
313.15 K, x1 = 0.3984
  viscosity: 6.09 mPa·s
313.15 K, x1 = 0.4991
  viscosity: 9.01 mPa·s
313.15 K, x1 = 0.603
  viscosity: 12.4 mPa·s
313.15 K, x1 = 0.699
  viscosity: 17.99 mPa·s
313.15 K, x1 = 0.899
  viscosity: 28.85 mPa·s
313.15 K, x1 = 1
  viscosity: 39 mPa·s
318.15 K, x1 = 0.0996
  viscosity: 1.467 mPa·s
318.15 K, x1 = 0.1999
  viscosity: 2.409 mPa·s
318.15 K, x1 = 0.2996
  viscosity: 3.72 mPa·s
318.15 K, x1 = 0.3984
  viscosity: 5.43 mPa·s
318.15 K, x1 = 0.4991
  viscosity: 7.9 mPa·s
318.15 K, x1 = 0.603
  viscosity: 11.16 mPa·s
318.15 K, x1 = 0.699
  viscosity: 15.6 mPa·s
318.15 K, x1 = 0.899
  viscosity: 23.82 mPa·s
318.15 K, x1 = 1
  viscosity: 32.59 mPa·s

## CCO + CC[n+]1ccn(CCOC)c1.O=S(=O)([O-])C(F)(F)F
288.15 K, x2 = 0
  viscosity: 1.319 mPa·s
293.15 K, x2 = 0
  viscosity: 1.195 mPa·s
298.15 K, x2 = 0
  viscosity: 1.086 mPa·s
303.15 K, x2 = 0
  viscosity: 0.989 mPa·s
308.15 K, x2 = 0
  viscosity: 0.903 mPa·s
313.15 K, x2 = 0
  viscosity: 0.825 mPa·s
318.15 K, x2 = 0
  viscosity: 0.757 mPa·s
